Source: PubChem BioAssay (NCI)
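Here, GI50 denotes the concentration required for 50% inhibition of growth. TGI marks complete inhibition of growth.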

How the values were obtained:
Assay in all cases: inhibition of tumour cell growth, NCI panel, 384-well format
CAKI-1 renal = system: CAKI-1 renal
HL-60(TB) leukemia = system: HL-60(TB) leukemia
UACC-257 melanoma = system: UACC-257 melanoma
MCF7 breast = system: MCF7 breast
SF-295 CNS = system: SF-295 CNS
786-0 renal = system: 786-0 renal
HOP-62 NSCLC = system: HOP-62 NSCLC
HCC-2998 colon = system: HCC-2998 colon
TK-10 renal = system: TK-10 renal
SK-OV-3 ovarian = system: SK-OV-3 ovarian
HT29 colon = system: HT29 colon
SN12C renal = system: SN12C renal
A549 NSCLC = system: A549 NSCLC
IGROV1 ovarian = system: IGROV1 ovarian
HCT-15 colon = system: HCT-15 colon
MDA-MB-468 breast = system: MDA-MB-468 breast
NCI-H322M lung = system: NCI-H322M lung
RXF 393 renal = system: RXF 393 renal
A498 renal = system: A498 renal
KM12 colon = system: KM12 colon
SNB-19 CNS = system: SNB-19 CNS
PC-3 prostate = system: PC-3 prostate
M14 melanoma = system: M14 melanoma
OVCAR-4 ovarian = system: OVCAR-4 ovarian
SK-MEL-5 melanoma = system: SK-MEL-5 melanoma
OVCAR-8 ovarian = system: OVCAR-8 ovarian
K-562 leukemia = system: K-562 leukemia
MDA-MB-435 melanoma = system: MDA-MB-435 melanoma
U251 glioblastoma = system: U251 glioblastoma

## NS(=O)(=O)OC[C@H]1C[C@@H](Nc2ccnc3cc(-c4cccc(SC(F)(F)F)c4)nn23)[C@H](O)[C@@H]1O
CAKI-1 renal
  GI50: 18.9 nM
  TGI: 36 nM
HL-60(TB) leukemia
  GI50: < 10 nM
  TGI: < 10 nM
UACC-257 melanoma
  GI50: 14.7 nM
  TGI: 28.6 nM
MCF7 breast
  GI50: 11.5 nM
  TGI: 31.2 nM
SF-295 CNS
  GI50: 48.1 nM
  TGI: 166 nM
786-0 renal
  GI50: 18.7 nM
  TGI: 36.1 nM
HOP-62 NSCLC
  GI50: < 10 nM
  TGI: 11.4 nM
HCC-2998 colon
  GI50: 13.1 nM
  TGI: 27.4 nM
TK-10 renal
  GI50: 27.3 nM
  TGI: 85.3 nM
SK-OV-3 ovarian
  GI50: 12.8 nM
  TGI: 25.9 nM
HT29 colon
  GI50: 94.7 nM
  TGI: 222 nM
SN12C renal
  GI50: 21.4 nM
  TGI: 43.7 nM
A549 NSCLC
  GI50: 59.6 nM
  TGI: 191 nM
IGROV1 ovarian
  GI50: 15.1 nM
  TGI: 30.1 nM
HCT-15 colon
  GI50: 33.2 nM
  TGI: 117 nM
MDA-MB-468 breast
  GI50: < 10 nM
  TGI: < 10 nM
NCI-H322M lung
  GI50: 11.3 nM
  TGI: 24.2 nM
RXF 393 renal
  GI50: < 10 nM
  TGI: 18.4 nM
A498 renal
  GI50: < 10 nM
  TGI: 21.2 nM
KM12 colon
  GI50: 25.5 nM
  TGI: 59.7 nM
SNB-19 CNS
  GI50: < 10 nM
  TGI: 20.7 nM
PC-3 prostate
  GI50: 17.5 nM
  TGI: 32.4 nM
M14 melanoma
  GI50: 15.8 nM
  TGI: 30.7 nM
OVCAR-4 ovarian
  GI50: 15.9 nM
  TGI: 29.9 nM
SK-MEL-5 melanoma
  GI50: < 10 nM
  TGI: < 10 nM
OVCAR-8 ovarian
  GI50: < 10 nM
  TGI: 16.5 nM
K-562 leukemia
  GI50: < 10 nM
  TGI: < 10 nM
MDA-MB-435 melanoma
  GI50: 17.4 nM
  TGI: 32.7 nM
U251 glioblastoma
  GI50: < 10 nM
  TGI: < 10 nM
